Broadly, the inhibition is the relative decrease from the control value, in per cent. Read a high inhibition as strong suppression.

15 compounds from patent US9481636B2, “N-benzylaniline derivative and uses thereof” (Nanjing Medical University, priority 2011, dated 2016) can be followed below.

Experiment [1] deals with neuropathic pain in mice (mechanical stimulus). In words: Neuropathic pain model (SNL), mechanical pain threshold (von Frey). The experiment is classed as in vivo. The conditions noted are these: intragastric 40 mg/kg; for efficacy duration of a single dose / time after administration at which significant efficacy was shown: SNL, mechanical; for threshold of paw withdrawal response to mechanical stimulus: day 7 after SNL, FIG. 6.

Experiment [2] has as its system OGD-injuried neurons (primary cortical neurons). In words: Cell viability assay: LDH release by OGD-injured primary cortical neurons. The experiment is classed as cell-based, mice. The conditions noted are these: drug concentration 10^−6 M/L, OGD 2 hours, LDH after 8 hours; for inhibition at 1 µM: Mus musculus, Primary cortical neuron. The procedure:
After primary neurons were cultured for 9 days, the medium was replaced by DMEM high glucose medium containing 1% FBS, serum-starved overnight and then washed twice with OGD culture solution. This OGD culture solution contains DMEM medium, 1% FBS, 1% penicillin/streptomycin and B27, and contains no sugar. Then, the primary neurons were incubated with the test drugs for 30 minutes, OGD culture solution was added into an anaerobic tank and oxygen-deprived for 2 hours. The OGD culture solution was discarded, and replaced by oxygen-saturated DMEM medium containing 1% FBS, 1% penicillin/streptomycin and B27. After 8 hours the culture solution was collected to measure LDH level.
After the primary cortical neurons were treated with various processes, neuronal culture solution in six-well plates was pipetted to a 1.5 mL plastic centrifuge tube; cells were washed three times with PBS solution and each well was added PBS 1000 μl. The cells were freezed and thawed repeated for three times, centrifuged at 12000′ g for 5 minutes at 4° C., and the supernatant was removed for use. The activity of LDH enzyme was determined with 50 μl culture solution and 25 μl supernatant using lactate dehydrogenase kit.
Protective Effects of the Objective Compounds Against Primary Cortical Neuronal Injury Cultured In Vitro (See Table 2)
For orientation: Release of lactate dehydrogenase indicates damage to the cell membrane.

The subject of experiment [3] is acute focal cerebral ischemia/reperfusion injury in rats. The experiment can be described thus: MCAO focal cerebral ischemia/reperfusion injury: infarct area and neurological defect score. The experiment is classed as in vivo. The conditions noted are these: tail vein 1.5 mg/kg 1 h after reperfusion, 48 h, FIG. 8; for cerebral infarct area: MCAO 120 min. An excerpt: Cerebral ischemia injury was induced by middle cerebral artery occlusion (MCAO) reperfusion model. […] The neck skin was incised along median line, and neck muscle tissue was bluntly dissected to expose and carefully isolate the common carotid artery (CCA) on the right side. The concomitant vagus nerve was gently peeled and ligated, and inward and superficial external carotid artery (ECA) was cut off; pterygopalatine artery, outward branch artery near skull base along internal carotid artery (ICA), was isolated and ligated. […] At this point, the blood supply to the middle cerebral arteries (MCA) including carotid artery and ramus communicans before Waldeyer's ring were all blocked. The depth of the inserted line was determined based on the mark. Extravascular part of the line was ligated and fixed to prevent the line from slippage. After rightside cerebral ischemia 120 minutes, the line was carefully unplugged and the broken end was ligated to achieve reperfusion after ischemia. Suturing the skin, and the rats were returned to cage and fed carefully. The body temperature of the animals was maintained constantly at 37±0.5° C. during surgery.
The modified Bederson 5-score method was used for evaluation of neurological defect symptoms. Neurological defect symptoms of rats after cerebral ischemia was evaluated by single-blinded method, i.e., test animals were marked by group by the test designers and testers who graded neurological defect symptoms didn't know the animal grouping, after the grading the testers submitted the grading results with various marks to the designers, and the designers unblinded the grouping to obtain scores for each animal in each test group.
The animals were anesthetized with 10% chloral hydrate 3.5 ml/kg, the brains were taken out after beheading, and olfactory bulb, cerebellum and lower brain stem were removed. Blood on the surface of the brain was washed with normal saline and residual water on the surface was absorbed. The brains were placed at −80° C. for 7 min, and once taken out were sliced at the coronal cross planes vertically to the sight plane with 2 mm intervals between the slices. The brain slices were immersed in a water bath (37° C., 90 min) containing 20 g/L TTC dye freshly prepared with 0.2 mol/L pH 7.4˜7.8 PBS, and normal brain tissues were stained crimson while ischemic brain tissues were pale. After the tissues were washed with normal saline, the brain slices were rapidly aligned in a row from front to back in order, and the surface residual water was absorbed to dry surface, then photographed. Statistics of the pictures were carried on using image analysis software, and ischemic area (white area) and total area on the right side were delineated. The percentage of cerebral infarct area was calculated using the following formula.
Neurological deficit symptoms were evaluated 48 h after the cerebral ischemia, then the animals were sacrificed and the brains were taken out, TTC stained, and infarct areas of the stained brain slices were measured.
The rats were under MCAO for 120 min, and 1 h after reperfusion the rats were injected through tail vein with ZL006-06, ZL006-16, ZL006-28, ZL006-30, ZL006-43, ZL006-82 or an equivalent volume of solvent, wherein the doses of each drug were 1.5 mg/kg, and the volume of injected drugs was 0.1 ml/100 g weight. Neurological deficit symptoms were evaluated 48 h after the cerebral ischemia, then the animals were sacrificed and the brains were taken out, TTC stained, and infarct areas of the stained brain slices were measured.

For `CC(=O)Oc1cc(NCc2cc(Br)cc(Cl)c2O)ccc1C(=O)OC1CC2CCC1(C)C2(C)C` (stereo not drawn) [ZL006-43, bornyl-2-acetyloxy-4-(2-hydroxy-3-chloro-5-bromobenzyl) aminobenzoate], in experiment [1], the “efficacy duration of a single dose” value is “about 6 hours”, the “time after administration at which significant efficacy was shown” value is given as 0.5 h and the “threshold of paw withdrawal response to mechanical stimulus” value (“threshold of paw withdrawal response” for short) is listed as “significantly increased”. Also, in experiment [2], the “Inhibition of LDH release (%)” value is 68.9%. Further, in experiment [3], the neurological defect symptoms result is given as “significantly alleviated” and the cerebral infarct area result was “significantly reduced”.
In the case of `COC(=O)c1ccc(N(Cc2cc(Br)cc(Cl)c2O)C(C)=O)cc1OC(C)=O` [ZL006-82, methyl 2-acetyloxy-4-[N-(2-hydroxy-3-chloro-5-bromobenzyl)-N-acetyl]aminobenzoate], in experiment [1], the “efficacy duration of a single dose” value is on record as “about 6 hours”, the “time after administration at which significant efficacy was shown” value was 0.5 h and the “threshold of paw withdrawal response” value is “significantly increased”. For the same compound, the “Inhibition of LDH release (%)” value in experiment [2] is 61.2%. In experiment [3], the neurological defect symptoms result is reported as “significantly alleviated” and the cerebral infarct area entry was “significantly reduced”.
For the compound `CC1(C)C2CCC1(C)C(OC(=O)c1cc(Cl)c(NCc3cc(Cl)cc(Cl)c3O)cc1O)C2` (stereo not drawn) [ZL006-16, bornyl-2-hydroxy-4-(2-hydroxy-3,5-dichlorobenzyl)amino-5-chlorobenzoate], in experiment [1], the “efficacy duration of a single dose” value is “about 6 hours”, the “time after administration at which significant efficacy was shown” value came out at 0.5 h and the “threshold of paw withdrawal response” value is on record as “significantly increased”. At 1 µM the inhibition in experiment [2] was 60.3%. Moreover, in experiment [3], the neurological defect symptoms entry is listed as “significantly alleviated” and the cerebral infarct area result is on record as “significantly reduced”.
For the compound `CC(=O)N(Cc1cc(Cl)cc(Cl)c1O)c1ccc(C(=O)OC2CC3CCC2(C)C3(C)C)c(O)c1` (stereo not drawn) [ZL006-28, bornyl-2-hydroxy-4-[N-(2-hydroxy-3,5-dichlorobenzyl)-N-acetyl]aminobenzoate], in experiment [1], the “efficacy duration of a single dose” value is “about 6 hours”, the “time after administration at which significant efficacy was shown” value worked out at 0.5 h and the “threshold of paw withdrawal response” value is on record as “significantly increased”. Besides, in experiment [2], the “Inhibition of LDH release (%)” value is listed as 61.6%. In experiment [3], the neurological defect symptoms result is reported as “significantly alleviated” and the cerebral infarct area entry is on record as “significantly reduced”.
As for `CC(=O)Oc1cc(N(C)Cc2cc(Cl)cc(Cl)c2O)ccc1C(=O)OC1CC2CCC1(C)C2(C)C` (stereo not drawn) [ZL006-30, bornyl-2-acetyloxy-4-[N-(2-hydroxy-3,5-dichlorobenzyl)-N-methyl]aminobenzoate], in experiment [1], the “efficacy duration of a single dose” value is given as “about 6 hours”, the “time after administration at which significant efficacy was shown” value is recorded as 0.5 h and the “threshold of paw withdrawal response” value is given as “significantly increased”. For the same compound, the “Inhibition of LDH release (%)” value in experiment [2] was determined as 65.9%. In experiment [3], the neurological defect symptoms result is “significantly alleviated” and the cerebral infarct area entry is “significantly reduced”.
As for `CC(=O)Oc1cc(NCc2cc(Cl)cc(Cl)c2O)ccc1C(=O)OC1CC2CCC1(C)C2(C)C` (stereo not drawn) [ZL006-06, bornyl-2-acetyloxy-4-(2-hydroxy-3,5-dichlorobenzyl) aminobenzoate], in experiment [1], the “efficacy duration of a single dose” value was “about 6 hours”, the “time after administration at which significant efficacy was shown” value stood at 0.5 h and the “threshold of paw withdrawal response” value is “significantly increased”. Further, in experiment [2], the “Inhibition of LDH release (%)” value is 55.8%. For the same compound, in experiment [3], the neurological defect symptoms result is given as “significantly alleviated” and the cerebral infarct area result is on record as “significantly reduced”.
With `CCCC(=O)Oc1cc(NCc2cc(F)cc(Cl)c2O)ccc1C(=O)OC1CC2CCC1(C)C2(C)C` (stereo not drawn) [ZL006-60, bornyl-2-butyryloxy-4-(2-hydroxy-3-chloro-5-fluorobenzyl)aminobenzoate], at 1 µM the inhibition in experiment [2] was 68.4%.
Regarding `COc1cc(NCc2cc(Cl)cc(Cl)c2O)ccc1C(=O)OC1CC2CCC1(C)C2(C)C` (stereo not drawn) [ZL006-20, bornyl-2-methoxy-4-(2-hydroxy-3,5-dichlorobenzyl) aminobenzoate], the “Inhibition of LDH release (%)” value in experiment [2] was 11.1%.
Still for that read-out and setting: in the case of “bornyl-2-(2-methoxy-2-carbonylethoxy)-4-[N-(2-hydroxy-3,5-dichlorobenzyl)-N-methyl]aminobenzoate [ZL006-34]” it was 24.1%.
With `CC(=O)Oc1cc(NCc2cc(Cl)cc(Cl)c2O)c(Cl)cc1C(=O)OC1CC2CCC1(C)C2(C)C` (stereo not drawn) [ZL006-18, bornyl-2-acetyloxy-4-(2-hydroxy-3,5-dichlorobenzyl) amino-5-chlorobenzoate], in experiment [2], the “Inhibition of LDH release (%)” value was 41.5%.
The same measure, in the same setting: in the case of `COc1cc(NCc2cc(Cl)ccc2O)ccc1C(=O)OC1CC2CCC1(C)C2(C)C` (stereo not drawn) [ZL006-67, bornyl-2-methoxy-4-(2-hydroxy-5-chlorobenzyl) aminobenzoate] it was 0.4%.
Still for that read-out and setting: in the case of `CN(Cc1cc(Cl)cc(Cl)c1O)c1ccc(C(=O)OC2CC3CCC2(C)C3(C)C)c(O)c1` (stereo not drawn) [ZL006-27, bornyl-2-hydroxy-4-[N-(2-hydroxy-3,5-dichlorobenzyl)-N-methyl]aminobenzoate] it was 25.3%.
On the same count and under the same terms, in the case of `CC(=O)N(Cc1cc(C(F)(F)F)cc(Cl)c1O)c1ccc(C(=O)OC2CC3CCC2(C)C3(C)C)c(O)c1` (stereo not drawn) [ZL006-54, bornyl-2-hydroxy-4-[N-(2-hydroxy-3-chloro-5-trifluoromethylbenzyl)-N-acetyl]aminobenzoate] it was 74.2%.
On to `COc1cc(NCc2cc(C(F)(F)F)cc(Cl)c2O)ccc1C(=O)OC1CC2CCC1(C)C2(C)C` (stereo not drawn) [ZL006-49, bornyl-2-methoxy-4-(2-hydroxy-3-chloro-5-trifluoromethylbenzyl)aminobenzoate], for which, in experiment [2], the inhibition at 1 µM amounted to 32.6%.
As for `CC(=O)Oc1cc(N(Cc2cc(Cl)cc(Cl)c2O)C(C)=O)ccc1C(=O)OC1CC2CCC1(C)C2(C)C` (stereo not drawn) [ZL006-31, bornyl-2-acetyloxy-4-[N-(2-hydroxy-3,5-dichlorobenzyl)-N-acetyl]aminobenzoate], the “Inhibition of LDH release (%)” value in experiment [2] worked out at 77.3%.
